{
  "source": "patent US20040029953A1",
  "about": "“Use of neuropeptide-y antagonists in treatment of alcoholism” (priority 2000, published 2004)",
  "key": {"[1]": {"tested_on": "rats trained to self-administer ethanol vs. water", "test": "Microinjection in the central nucleus of the amygdala (CeA), ethanol vs. water self-administration", "assay_type": "in vivo, rat", "description": "FIG. 4 depicts a dose response curve showing the effects the NPY-Y1 antagonist BIBP 3226 in the central nucleus of the Amygdala.\nTo further elucidate the role of NPY receptors in alcohol-seeking behavior, the NPY-Y1 […] BIBP 3226 was injected in the central nucleus of the amygdala (CeA) of rats trained to self-administer ethanol vs. water as described (Kelley et al., 2001 Peptides 22: 515-522). The CeA was chosen as an additional test site because, in addition to the hypothalamus, this brain region contains significant numbers of NPY receptors."}, "Long-Evans rats": {"tested_on": "Long-Evans rats", "test": "Ethanol (10% v/v) vs. water self-administration after infusion in the PVN, sucrose-faded rats with long-term ethanol history", "assay_type": "in vivo, rat", "source_text": "The effectiveness of known NPY receptor antagonists and NPY Y1-selective or Y5selective receptor antagonists in reducing craving for alcohol and reducing self-administration of alcohol can be tested in experimental animal models. Briefly, Long-Evans rats are conditioned to the laboratory environment and trained to self-administer concurrent ethanol (10% v/v) vs. water using a sucrose-fading procedure (H. H. Samson, Alcohol Clin. Exp. Res., 1986, 10:436442) as described by Hodge et al. (Alcohol, 1993, 10:191-196). Stereotaxic surgery is performed to implant injector guide cannulae aimed at the PVN. Microinjections of test compounds are given, with and without concomitant injection of NPY, into the PVN of the conditioned rats, which are then immediately given the opportunity to self-administer either water or ethanol (10% v/v). The volume of ethanol and water consumed are measured. Ethanol intake is converted from milliliters consumed to gram/kilogram body weight. Relative ethanol intake (preference) is calculated as […] of ethanol consumed divided by total fluid intake (ethanol+water […]). Drug dose effects are analyzed by one-way repeated measures analysis of variance (ANOVA). Post-hoc comparisons between drug doses and vehicle control are conducted using a paired t-test or Dunnett's t-test where appropriate (SigmaStat, Jandel, San Rafael, Calif.).\nAnimals. Thirty-six male Long-Evans rats (Harlan, Indianapolis, Ind.) were housed individually in Plexiglas cages. Access to water was restricted during the first day of behavioral training, but was continuously available for the remainder of the experiment. Food was always available in the home cage. In experimental chambers, ethanol (10% v/v) and water were available concurrently during daily (M-F) sessions. The animal colony room was maintained on a 12L:12D cycle with the lights on at 06:30. Experimental sessions were run during the light portion of the cycle. All experimental procedures were conducted under institutional and NIH guidelines.\nApparatus. Experimental sessions were conducted in Plexiglas chambers (27×37×21 cm) located in sound-attenuating cubicles (MED Associates, model ENV 016M, Lafayette, Ind.). Chambers were equipped with exhaust fans that masked external noise. The right wall of each chamber contained two 50-ml drinking bottles. Drug solutions were administered bilaterally through stainless steel injectors (Plastics One, Roanoke, Va.), which were connected via plastic tubing to two 1.0 μl syringes (Hamilton, Reno, Nev.). Syringes were mounted on a micro-infusion pump (Harvard Apparatus, Model 22, Natick, Mass.) set to deliver 0.5 μl/min/syringes.\nSelf-administration procedures. After 2 weeks of adaptation to laboratory housing conditions, fluid access was restricted to 1-h per day (for 2 days only) and two groups of rats (n=12 per group) were trained to drink from the bottles in the experimental chambers by overnight access to sucrose (10% w/v) vs. water during one overnight session. Daily 1 hour sessions were then conducted with sucrose (10% w/v) vs. water available concurrently. The location (i.e., left or right side of the chamber) of the sucrose and water solutions was alternated daily. When sucrose and water intake patterns stabilized, the rats were trained to self-administer concurrent ethanol (10% v/v) vs. water using a sucrose-fading procedure (H. H. Samson, Alcohol Clin. Exp. Res., 1986, 10:436-442) as previously described (e.g., Hodge et al., 1993). Briefly, ethanol was gradually added to the sucrose solution and then sucrose was faded out of the solution until rats were self-administering 10% ethanol vs. water. During the 2-month sucrose-fading procedure, the location of the ethanol/sucrose solution and water were alternated daily."}, "Y1 receptor": {"target": "T1, Y1 receptor (Homo sapiens, UniProt P25929)", "T1 sequence (P25929 1-384)": "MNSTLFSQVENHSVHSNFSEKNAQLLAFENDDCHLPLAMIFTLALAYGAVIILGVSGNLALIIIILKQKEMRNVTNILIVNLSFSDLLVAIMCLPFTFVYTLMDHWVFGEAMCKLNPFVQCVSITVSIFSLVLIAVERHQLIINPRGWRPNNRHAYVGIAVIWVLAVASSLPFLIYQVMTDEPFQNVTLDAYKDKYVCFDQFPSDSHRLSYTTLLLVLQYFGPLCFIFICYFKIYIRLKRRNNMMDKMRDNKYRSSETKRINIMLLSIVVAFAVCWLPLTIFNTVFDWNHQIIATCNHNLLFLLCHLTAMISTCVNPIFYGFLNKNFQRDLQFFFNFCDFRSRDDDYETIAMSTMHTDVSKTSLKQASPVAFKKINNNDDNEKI", "conditions": "cited from earlier work"}, "rats": {"tested_on": "rats", "conditions": "cited from earlier work"}, "[2]": {"conditions": "BIBP 3226 (10.6 μm) alone in the PVN"}},
  "note": "Entries after “also recorded” stand apart in the source; their conditions may differ.",
  "data": [
    {"compound": "N=C(N)NCCC[C@@H](NC(=O)C(c1ccccc1)c1ccccc1)C(=O)NCc1ccc(O)cc1", "note": "[BIBP 3226, (R)-N^2-(diphenylacetyl)-N-[(4-hydroxyphenyl)methyl]-D-arginine amide]", "values": [
      {"measurement": "dose of self-administered ethanol", "setting": "[1]; BIBP 3226 in the CeA, highest dose, 1-hour sessions, vs vehicle, p<0.05", "value": "reduced ethanol self-administration after infusion of the highest dose; also recorded: significantly reduced alcohol self-administration; also recorded: significantly reduced the dose of alcohol that was self-administered"},
      {"measurement": "water intake", "setting": "[1]; BIBP 3226 injected in the CeA", "value": "no effect on water intake"},
      {"measurement": "ethanol intake", "setting": "Long-Evans rats; [2]", "value": "no significant effect"},
      {"measurement": "ethanol preference", "setting": "Long-Evans rats; [2]", "value": "no significant effect"},
      {"measurement": "water intake", "setting": "Long-Evans rats; [2]", "value": "no significant effect"},
      {"measurement": "NPY-induced increase in ethanol intake", "setting": "Long-Evans rats; BIBP 3226 co-administered with NPY (10 fmol) in the PVN", "value": "completely blocked"}
    ]},
    {"compound": "NPY 2-36: an N-terminal truncated NPY fragment", "values": [
      {"measurement": "affinity for the Y1 receptor subtype", "setting": "Y1 receptor", "value": "low potency"}
    ]},
    {"compound": "N=C(N)NCCC[C@@H](NC(=O)C(c1ccccc1)c1ccccc1)C(=O)NCc1ccc(CNC(N)=O)cc1.O=C(O)C(F)(F)F", "note": "[BIBO 3304, (R)-N-[[4-(aminocarbonylaminomethyl)-phenyl]methyl]-N^2-(diphenylacetyl)arginine amide trifluoroacetate]", "values": [
      {"measurement": "food intake induced by application of NPY or by fasting", "setting": "rats; rats", "value": "significantly inhibits food intake"}
    ]},
    {"compound": "[Pro^34]-NPY: Y1 agonist that stimulates feeding", "values": [
      {"measurement": "food intake relative to that seen following the injection of NPY", "setting": "rats; rat, in vivo", "value": "approximately 50%"}
    ]}
  ]
}
